According to patent US20100130432A1, “Non-Natural Amino Acids and Neurotensin Analogues Thereof” (priority 2005, published 2010):
Counter-ions that a name gives are not always drawn. Marks after values point to notes of the source that are not given here. Non-standard residues stand in square brackets, D forms with d. Residues, ends and D or L forms follow the SMILES beside them. No end group written: not given here. *: point of attachment. X5 = [N-]=[N+]=N[C@@H](CCCCCN)C(=O)*; X2 = C[C@@H](CCC[N+](C)(C)C)C(=O)*; Tle = CC(C)(C)[C@H](N)C(=O)O; hLys = NCCCCC[C@H](N)C(=O)O; X1 = C[C@@H](CCCCCN)C(=O)*; Orn = NCCC[C@H](N)C(=O)O

Legend:
NTR-2 = NTR-2 (Homo sapiens, UniProt O95665); test: Competitive NTR binding versus radiolabeled NT[8-13]
NTR-1 = NTR-1 (Homo sapiens, UniProt P30989); test: as above
rats [1] = test: Clinical observation after high IV or PO dose; assay type: in vivo, rat
Description: During the 2 and 24 hour post-dosing clinical observation periods, measurements of core body temperatures were taken.

[2] = Pharmacokinetics of ABS201 in blood/plasma (LC/MS/MS); conditions: SD, rat, in vivo, iv, 100 mg/kg
Source text: (§1) At selected time points, blood was removed or brain harvested and the concentration of the peptide analog determined using LC/MS/MS.
(§2) These samples were then used for the determination of plasma and brain drug levels by LC/MS/MS for estimating BBB penetration and pharmacokinetic parameters.

[3] = Brain distribution of ABS201 (LC/MS/MS)
Source text: as §1, §2

[4] = Pharmacokinetics of ABS212 in plasma (LC/MS/MS); assay type: in vivo, rat
Source text: These samples were used for the determination of plasma parent drug concentrations by LC/MS/MS for estimating pharmacokinetic parameters and oral bioavailability.

rats [5] = test: Catalepsy, horizontal bar test; conditions: IP 1 mg/kg, cut-off 30 sec
Description: (§3) Cataleptic Analysis. […] To circumvent these potential confounding factors, tests are performed on an animal only once in a quiet, controlled environment.
(§4) Catalepsy Assessment. […] Rats were given an IP injection of peptide (5 mg/Kg), saline, or haloperidol (1 mg/kg). After 3 hours, catalepsy was measured using the horizontal bar test. Briefly, the front paws were placed directly on a horizontal bar 5 mm in diameter placed 7.5 cm above the cage floor. The rat was held in this position for 3 sec and then released. The time from release until the paws return to the cage floor was measured and recorded. A cut-off time of 30 sec was observed; this indicated a fully cataleptic animal as cataleptic animals are frozen to the bar. […] Measures were repeated every 30 min for 4 hr. Data are means±SEM (p<0.01).

rats [6] = test: Formalin assay; assay type: in vivo, rat; conditions: ABS212 10 mg/kg, Morphine 5 mg/kg
Description: Formalin Assay. […] Animals were scored every minute on the following scale: 0=forepaw flat on floor, 1=forepaw just touching floor, 2=forepaw held up off of floor, and 3=forepaw licked or bitten. […] The animals were immediately be placed into the observation cages, and their behavior recorded over the following 30 minutes. After each experiment, rats were euthanized with CO2 followed by cervical dislocation. An average Pain Rating over time versus the baseline and formalin-only controls for each peptide tested were plotted, and statistical analysis were performed using a one-way analysis of variance (ANOVA). Differences were considered statistically significant at the 5% confidence interval. N=6 or greater for all experiments.

rats [7] = test: Tail flick assay; assay type: in vivo, rat; conditions: ABS212 10 mg/kg, Morphine 5 mg/kg
Description: The Tail Flick Assay. Each of 6 rats per experiment were placed in a Plexiglas restraint box. A standard laboratory hot water bath was maintained at 49° C. The distal 3 cm of the rat's tail was submerged into the water, and the time from insertion to tail flick or removal of tail from the water was recorded. Animals are removed immediate4ly at the cutoff latency of 10 seconds. MPEs were calculated, with a MPE of 100% corresponding to the rat's tail remaining in the water bath for 10 seconds. This was repeated 3 times. The tail was dried and allowed to rest for 20 seconds between trials. The rat was then given the appropriate amount of peptide and the experiment repeated at 30 and 60 minutes. Treatment conditions were distributed over the study in a counterbalanced design to control for such factors as calendar period and order of dosing. N=6 or greater for all experiments.

rats [8] = test: Induced hypothermia (rectal temperature) after IP or oral administration; conditions: IP 5 mg/kg, Table 5
Source text: Hypothermia as a Preliminary Screen of CNS Activity.
Animal Restraint. Rats were restrained in Plas-Labs® plastic cages fitted with wooden dowels to restrict movement. Rectal temperature probes (Physitemp®, RET-2, Clifton, N.J.), lubricated with mineral oil, were inserted into the rectum of each animal. Probes were connected to a microprobe thermometer (Physitemp®, BAT-12) in conjunction with a thermocouple selector (Physitemp®, SWT-5). Rats were allowed to acclimate to the cages for 1 hr prior to IP injection.
Peptide Preparation. […] For oral administration, the test article was administered directly into the animals' stomach by gavaging. Controls involved the administration of 0.9% NaCl. Thus, peptides were dissolved in saline, and following the equilibration period, rats were given an IP injection of peptide (5 mg/kg) or saline (1 mL/kg). […]
Hypothermia. […] For each rat, a thermistor probe was placed 4.5 cm into the rectum; baseline temperatures were recorded for 1 hr to allow habituation to the cages prior to injection of compound. […]
The former activity is most easily monitored by measuring the extent of induced hypothermia (core body temperature loss), which is a measure of NTR-1 binding and agonism and thus antipsychotic activity. Hypothermia is followed routinely over time through insertion of a thermometer probe hooked up to a digital readout box into the anus of the rats.

rats [9] = test: d-Amphetamine induced hyperlocomotion / locomotor activity chambers; assay type: in vivo, rat; conditions: rat, in vivo
Source text: Sound- and light-attenuated locomotor cages are used to measure the ability of potential candidates to decrease d-amphetamine-induced hyperactivity.
d-Amphetamine induced hyperlocomotion. Experimentally I male Sprague-Dawley rats were housed as described above. Rats were handled for three days prior to testing to minimize experimenter induced hyperlocomotion on test day. For experiments, sound- and light-attenuated automated photocell beam activity chambers (AccuScan Instruments, Inc., Columbus, Ohio) were used to measure locomotion. Cages were connected to a VersaMax Analyzer (AccuScan) in conjunction with an IBM computer using VersaMax 1.80-0146 software (AccuScan) to record vertical and horizontal activity. Total activity values recorded were the sum of vertical and horizontal activity. […]
Rats were placed in the activity chambers for 30 minutes to habituate and establish baseline activity levels. Then, rats were removed and given an IP or oral dose of peptide (N=7) or saline (N=8) and returned to the chamber to establish the peptide's effect on spontaneous activity levels. About 30 minutes after administration, rats were removed and given an IP injection of d-amphetamine (1 mg/kg) or vehicle and returned to the chamber for a further 1 hr to assess the effect of the peptide on induced hyperlocomotion.
Chronic Testing Protocols.
Separate two-factor ANOVAs for DOSE X TIME were performed for each different time-phase of the assay. Phases for the IP dosing and oral dosing experiments consisted of habituation (time points 10-60), drug (time points 70-120), and amphetamine (time points 130-240).

rats [10] = conditions: rat, in vivo
Description: as §3, §4

rats [11] = test: Hotplate assay; assay type: in vivo, rat; conditions: for MPE (I.P.) / Tmax (I.P.) of % MPE / MPE (oral) / Tmax (Oral) of % MPE: hotplate; for MPE (I.P.) / Tmax (I.P.) of % MPE: IP at 10 mg/kg; for MPE (oral) / Tmax (Oral) of % MPE: orally at 20 mg/kg
Source text: Animals. Experimentally naïve male Sprague-Dawley rats from Charles River Laboratories, Raleigh, N.C. (230-260 g) or Harlan, Prattville Ala. (240-280 g), were maintained 4 per cage in animal quarters on a regular light/dark cycle (lights on 0600-1800) with ad libitum food and water for approximately 1 week before the experiment. The range of body weights on the 2 days of testing was 230-260 grams. The experiment was done on one day, with animals allowed to recover for three days before experiments are repeated.
Peptide Preparation. Test articles are prepared at the desired concentration in saline for either IP injection or gavage administration with N=6 for each dose and vehicle. Morphine (5 mg/kg) is used as a control for certain protocols. […] Apomorphine HCl (Sigma-Aldrich, St. Louis, Mo.) was dissolved in distilled water at a concentration of 5 mg/mL within 40 minutes of administration for injection at 1 mL/kg S.C. to give a dose of 5 mg/kg. When complete ED50s are determined, dosing range of the peptide will be 10, 3, 1, 0.3, 0.1 of the estimated ED50, covering two log orders of range.
The Hotplate Assay. The hotplate assay, a standard rat model for […] pain (see Le Bars et al., Pharmacol. Rev. 53: 597-652 (2001) and Chapman et al., Pain 22:1-31 (2002)), was performed as follows. A hotplate maintained at 52° C. to 53° C. was enclosed on four sides in a plexiglass chamber that extended 6 in. above the plate. Animals were placed on the plate, and the latency between the time a rat was placed on the surface and when it lifts or licks a back paw (indicative of pain sensation) was determined. Animals are removed immediately at the cutoff latency of 30 seconds. Assays are scored as the percent of maximal possible effect (% MPE) defined as 100%, which corresponds to the rats remaining on the hotplate for 30 seconds without responding. Thus, % MPE are calculated using the following equation: % MPE=[(post-drug latency−pre-drug latency)/(cut-off pre-drug latency)]×100%. N=6 or greater for all experiments.
Tmax indicates the time after dosing in which a maximum response was observed.

Sequence of NTR-1 (P30989 whole entry, species assumed): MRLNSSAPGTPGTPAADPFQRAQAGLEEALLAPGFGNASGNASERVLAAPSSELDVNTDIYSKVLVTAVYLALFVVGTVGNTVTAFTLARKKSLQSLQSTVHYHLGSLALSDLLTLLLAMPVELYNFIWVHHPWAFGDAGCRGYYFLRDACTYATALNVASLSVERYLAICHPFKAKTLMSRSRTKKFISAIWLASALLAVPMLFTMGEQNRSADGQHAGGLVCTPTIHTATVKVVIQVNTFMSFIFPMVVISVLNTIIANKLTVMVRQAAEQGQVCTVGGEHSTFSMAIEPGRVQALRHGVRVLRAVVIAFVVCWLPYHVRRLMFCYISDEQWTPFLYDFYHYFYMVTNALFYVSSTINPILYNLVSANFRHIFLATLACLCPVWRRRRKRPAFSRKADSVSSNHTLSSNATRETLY
Sequence of NTR-2 (O95665 whole entry, species assumed): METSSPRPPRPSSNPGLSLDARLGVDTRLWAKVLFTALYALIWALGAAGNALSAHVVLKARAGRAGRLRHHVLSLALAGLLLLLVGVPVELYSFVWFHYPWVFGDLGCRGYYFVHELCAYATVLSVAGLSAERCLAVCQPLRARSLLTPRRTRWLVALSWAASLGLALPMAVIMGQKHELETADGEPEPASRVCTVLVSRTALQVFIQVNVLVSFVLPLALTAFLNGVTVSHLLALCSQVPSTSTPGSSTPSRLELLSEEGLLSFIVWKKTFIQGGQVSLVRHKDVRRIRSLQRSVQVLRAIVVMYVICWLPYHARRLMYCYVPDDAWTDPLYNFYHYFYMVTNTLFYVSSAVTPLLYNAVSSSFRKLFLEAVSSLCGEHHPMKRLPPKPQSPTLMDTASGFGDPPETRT

## CC(C)C[C@H](NC(=O)[C@@H](NC(=O)[C@H](Cc1ccc(O)cc1)NC(=O)[C@@H]1CCCN1C(=O)[C@H](CCCNC(=N)N)NC(=O)[C@H](CCCCCN)N=[N+]=[N-])C(C)(C)C)C(=O)O [ABS13, N3-L-homolysine-Arg-Pro-Tyr-tertLeu-Leu-COOH] (X5-RPY[Tle]L-OH)
NTR-2
  IC50: 11.1 ± 0.1 nM
NTR-1
  IC50: 5.7 ± 0.37 nM

## CC(C)C[C@H](NC(=O)[C@@H](NC(=O)[C@H](Cc1ccc(O)cc1)NC(=O)[C@@H]1CCCN1C(=O)[C@H](CCCNC(=N)N)NC(=O)[C@@H](C)CCCCCN)C(C)(C)C)C(=O)O [ABS201 HCl] (X1-RPY[Tle]L-OH)
Rats [1]; IV 50 mg/kg
  clinical observation 24 hour post-dosing: grossly normal; hypothermia was absent
  clinical observation immediately after dosing: obviously sedated
  clinical observation two hour post-dosing: marked hypothermia was present
Rats [1]; PO 250 mg/kg
  clinical observation: grossly normal at all time points

## CC(C)C[C@H](NC(=O)[C@@H](NC(=O)[C@H](Cc1ccc(O)cc1)NC(=O)[C@@H]1CCCN1C(=O)[C@H](CCCNC(=N)N)NC(=O)[C@@H](C)CCCCCN)C(C)(C)C)C(=O)O [ABS201.2HCl] (X1-RPY[Tle]L-OH)
[2]
  Vd: 16.1 L/kg
  clearance: 380 mL/min/kg
[3]; 15 min intravenous infusion 100 mg/kg
  AUC0-t in brain: 60.96 ng·h/g
[3]; SD, rat, brain, iv, 100 mg/kg
  Cmax: 32.9 ng/g
  half-life: 4.85 h

## CC(C)C[C@H](NC(=O)[C@@H](NC(=O)[C@H](Cc1ccc(O)cc1)NC(=O)[C@@H]1CCCN1C(=O)[C@H](CCCNC(=N)N)NC(=O)[C@@H](C)CCC[N+](C)(C)C)C(C)(C)C)C(=O)O [ABS-212.2HCL] (X2-RPY[Tle]L-OH)
[4]; IV bolus 1 mg/kg
  clearance as % of rat hepatic blood flow: 32.33%
[4]; IV bolus 5 mg/kg
  clearance as % of rat hepatic blood flow: 12.08%
[4]; IV bolus […]
  clearance as % of rat hepatic blood flow: 12.08%

## O=C(CCCN1CCC(O)(c2ccc(Cl)cc2)CC1)c1ccc(F)cc1 [Haloperidol, reference compound]
Rats [5]
  duration of catalepsy: greater than 30 sec

## CN1CC[C@]23c4c5ccc(O)c4O[C@H]2[C@@H](O)C=C[C@H]3[C@H]1C5 [Morphine, reference compound]
Rats [6]
  analgesic effect over the time course: loses activity after 30 minutes
Rats [7]
  MPE (0 min): 0.03 +/− 0.05
  MPE (30 min): 63.7 +/− 41.9
  MPE (60 min): 67.5 +/− 25.8

## CC[C@H](C)[C@H](NC(=O)[C@H](Cc1ccc(O)cc1)NC(=O)[C@@H]1CCCN1C(=O)[C@H](CCCNC(=N)N)NC(=O)[C@@H](N)CCCNC(=N)N)C(=O)N[C@@H](CC(C)C)C(=O)O [NT(8-13), NH2-Arg-Arg-Pro-Tyr-Ile-Leu-COOH, reference compound]
Rats [8]
  tmax (min) Time to maximal temperature decrease: 90 min
  Δ in BT (° C.) Decrease in body temperature measured at tmax: −0.45 ± 0.17^d ° C.
Rats [9]
  Hyperlocomotion Inhibition (routes of administration): CNS administration
  Inhibits locomotor activity (routes of administration): CNS administration
Rats [10]
  catalepsy: No

## Arg-Arg-Pro-Tyr-t-Leu-Leu [ABS213]
Rats [11]
  MPE (I.P.): 48%
  Tmax (I.P.) of % MPE: 30

## Arg-Arg-Pro-Tyr-tLeu-Leu [ABS237]
Rats [11]
  MPE (I.P.): 50%
  Tmax (I.P.) of % MPE: 30

## Boc-Arg-Pro-Tyr-t-Leu-Leu [ABS700]
Rats [11]
  MPE (I.P.): 51%
  Tmax (I.P.) of % MPE: 90

## KRPY[Tle]L [ABS229]
Rats [11]
  MPE (I.P.): 48%
  Tmax (I.P.) of % MPE: 60

## Lys-Arg-Pro-Tyr-t-Leu-Leu [ABS205]
Rats [11]; gavage 20 mg/kg
  analgesic effect relative to ABS212: as much or more active than ABS212
Rats [11]
  MPE (I.P.): 86%
  Tmax (I.P.) of % MPE: 15-30
  MPE (oral): 66%
  Tmax (Oral) of % MPE: 30

## Orn-Arg-Pro-Tyr-t-Leu-Leu [ABS209]
Rats [11]
  MPE (I.P.): 89%
  Tmax (I.P.) of % MPE: 60

## [Orn]RPY[Tle]L [ABS233]
Rats [11]
  MPE (I.P.): 51%
  Tmax (I.P.) of % MPE: 45

## [hLys]RPY[Tle]L [ABS225]
Rats [11]
  MPE (I.P.): 100%
  Tmax (I.P.) of % MPE: 15-45
  MPE (oral): 38%
  Tmax (Oral) of % MPE: 30
